The values that follow come from patent US4725683A, “Fluorophenoxyphenoxypropionates and derivatives thereof” (The Dow Chemical Company, priority 1985, dated 1988).

Holding throughout (assay): Preemergent activity
Assay type in all cases: in vivo

The test system of one test is Barnyard Grass. Particulars: Echinochloa crus-galli, pre-emergence, read-out: Preemergence Control; for pest or weed control at 70 g/ha: 0.07 kgs/hectare; for pest or weed control at 140 g/ha: 0.14 kgs/hectare; for pest or weed control at 280 g/ha: 0.28 kgs/hectare; for pest or weed control at 560 g/ha: 0.56 kgs/hectare; for pest or weed control at 1120 g/ha: 1.12 kgs/hectare. The method, then:
(§1) In a representative operation, 2-[4-(2-fluoro-4-trifluoromethylphenoxy)phenoxy]propionic acid methyl ester, to be utilized in a series of tests, is dissolved in acetone to one half of the final volume (twice the final concentration) to be used and the acetone solution in each case is admixed with an equal volume of water containing 0.1 percent by weight of Tween-20 surface active material (Tween-20 is a trademark of Atlas Chemical Company). The composition, generally in the nature of an emulsion, was employed to treat separate respective seed beds of sandy loam soil of good nutrient content wherein each seed bed contained separate groups of good viable seeds, each group being of one of a known plant species. The various beds were positioned side by side and exposed to substantially identical conditions of temperature and light. Each bed was maintained so as to prevent any interaction with the test compound in different seed beds. Each seed bed was treated with the composition as a spray employing conventional spraying equipment to deposit a predetermined amount of the compound uniformly throughout the surface of the bed. Another seed bed was treated only with the acetone-Tween-20 water mixture with no chemical added to serve as a control.

A further test deals with Johnson Grass. The settings on record: Sorghum halepense, pre-emergence, read-out: Preemergence Control; for pest or weed control at 70 g/ha: 0.07 kgs/hectare; for pest or weed control at 140 g/ha: 0.14 kgs/hectare; for pest or weed control at 280 g/ha: 0.28 kgs/hectare; for pest or weed control at 560 g/ha: 0.56 kgs/hectare; for pest or weed control at 1120 g/ha: 1.12 kgs/hectare. The method, then:
as §1

The subject of another test is Yellow Foxtail. Particulars: Setaria, pre-emergence, read-out: Preemergence Control; for pest or weed control at 70 g/ha: 0.07 kgs/hectare; for pest or weed control at 140 g/ha: 0.14 kgs/hectare; for pest or weed control at 280 g/ha: 0.28 kgs/hectare; for pest or weed control at 560 g/ha: 0.56 kgs/hectare; for pest or weed control at 1120 g/ha: 1.12 kgs/hectare. The method, then:
as §1

The test system of the next test is Wild Oats. Particulars: Avena fatua, pre-emergence, read-out: Preemergence Control; for pest or weed control at 70 g/ha: 0.07 kgs/hectare; for pest or weed control at 140 g/ha: 0.14 kgs/hectare; for pest or weed control at 280 g/ha: 0.28 kgs/hectare; for pest or weed control at 560 g/ha: 0.56 kgs/hectare; for pest or weed control at 1120 g/ha: 1.12 kgs/hectare. The method, then: as §1

A further test deals with Wheat. The settings on record: Triticum aestivum, pre-emergence, read-out: Preemergence Control; for plant injury at 70 g/ha: 0.07 kgs/hectare; for plant injury at 140 g/ha: 0.14 kgs/hectare; for plant injury at 280 g/ha: 0.28 kgs/hectare; for plant injury at 560 g/ha: 0.56 kgs/hectare; for plant injury at 1120 g/ha: 1.12 kgs/hectare. The method, then:
as §1

`CCCCOC(=O)C(C)Oc1ccc(Oc2ccc(Br)cc2F)cc1` (stereo not drawn) [O(CH2)3 CH3, Propionic acid: 2-(4-(4-bromo-2-fluorophenoxy)phenoxy), n-butyl ester]: in the test on Barnyard Grass, the pest or weed control at 70 g/ha is 0%, the pest or weed control at 140 g/ha was 70%, the pest or weed control at 280 g/ha turned out to be 100% and the pest or weed control at 560 g/ha was found to be 100%. Moreover, in the test on Barnyard Grass, the pest or weed control at 1120 g/ha amounted to 100%. In addition, in the test with Johnson Grass, the pest or weed control at 70 g/ha was 0%, the pest or weed control at 140 g/ha stood at 0%, the pest or weed control at 280 g/ha was 65% and the pest or weed control at 560 g/ha amounted to 100%. In the test with Johnson Grass, the pest or weed control at 1120 g/ha worked out at 100%. Moreover, in the test with Yellow Foxtail, the pest or weed control at 70 g/ha stood at 0%, the pest or weed control at 140 g/ha was 40%, the pest or weed control at 280 g/ha worked out at 95% and the pest or weed control at 560 g/ha was 100%. Further, the pest or weed control at 1120 g/ha in the test on Yellow Foxtail came out at 100%. In addition, in the test on Wild Oats, the pest or weed control at 70 g/ha is 0%, the pest or weed control at 140 g/ha came to 0%, the pest or weed control at 280 g/ha worked out at 50% and the pest or weed control at 560 g/ha was 80%. In addition, in the test on Wild Oats, the pest or weed control at 1120 g/ha stood at 100%. In the test with Wheat, the plant injury at 70 g/ha is 0%, the plant injury at 140 g/ha was determined as 0%, the plant injury at 280 g/ha is 0% and the plant injury at 560 g/ha worked out at 30%. Moreover, the plant injury at 1120 g/ha in the test on Wheat was found to be 30%.

As to `CC(Oc1ccc(Oc2ccc(Br)cc2F)cc1)C(=O)OC1CCCC1` (stereo not drawn), in the test on Barnyard Grass, the pest or weed control at 140 g/ha was 50%, the pest or weed control at 280 g/ha was 100%, the pest or weed control at 560 g/ha came out at 100% and the pest or weed control at 1120 g/ha was found to be 100%. In the test on Johnson Grass, the pest or weed control at 140 g/ha stood at 0%, the pest or weed control at 280 g/ha amounted to 40%, the pest or weed control at 560 g/ha is 100% and the pest or weed control at 1120 g/ha came out at 100%. Further, in the test on Yellow Foxtail, the pest or weed control at 140 g/ha was determined as 0%, the pest or weed control at 280 g/ha is 100%, the pest or weed control at 560 g/ha was 100% and the pest or weed control at 1120 g/ha worked out at 100%. Further, in the test on Wild Oats, the pest or weed control at 140 g/ha was 0%, the pest or weed control at 280 g/ha is 30%, the pest or weed control at 560 g/ha is 100% and the pest or weed control at 1120 g/ha came out at 100%. Also, in the test with Wheat, the plant injury at 70 g/ha turned out to be 0%, the plant injury at 140 g/ha turned out to be 0%, the plant injury at 280 g/ha is 0% and the plant injury at 560 g/ha is 0%. The plant injury at 1120 g/ha in the test on Wheat worked out at 80%.

With `C=CCNC(=O)C(C)Oc1ccc(Oc2ccc(Br)cc2F)cc1` (stereo not drawn), in the test with Barnyard Grass, the pest or weed control at 140 g/ha amounted to 0%, the pest or weed control at 280 g/ha came to 100%, the pest or weed control at 560 g/ha was found to be 100% and the pest or weed control at 1120 g/ha is 100%. Also, in the test on Johnson Grass, the pest or weed control at 140 g/ha came to 0%, the pest or weed control at 280 g/ha came out at 50%, the pest or weed control at 560 g/ha was 90% and the pest or weed control at 1120 g/ha worked out at 100%. Further, in the test on Yellow Foxtail, the pest or weed control at 140 g/ha came to 0%, the pest or weed control at 280 g/ha was 30%, the pest or weed control at 560 g/ha was determined as 90% and the pest or weed control at 1120 g/ha was found to be 100%. Also, in the test on Wild Oats, the pest or weed control at 140 g/ha came to 80%, the pest or weed control at 280 g/ha turned out to be 90%, the pest or weed control at 560 g/ha was found to be 80% and the pest or weed control at 1120 g/ha is 90%. In the test on Wheat, the plant injury at 70 g/ha amounted to 0%, the plant injury at 140 g/ha came out at 0%, the plant injury at 280 g/ha turned out to be 0% and the plant injury at 560 g/ha is 0%. In addition, in the test on Wheat, the plant injury at 1120 g/ha is 0%.

As to `COc1cccc(NC(=O)C(C)Oc2ccc(Oc3ccc(Br)cc3F)cc2)c1` (stereo not drawn), in the test on Barnyard Grass, the pest or weed control at 140 g/ha stood at 0%, the pest or weed control at 280 g/ha was found to be 100%, the pest or weed control at 560 g/ha was 100% and the pest or weed control at 1120 g/ha came out at 100%. For the same compound, in the test with Johnson Grass, the pest or weed control at 140 g/ha was 0%, the pest or weed control at 280 g/ha worked out at 30%, the pest or weed control at 560 g/ha was determined as 30% and the pest or weed control at 1120 g/ha turned out to be 100%. Moreover, in the test with Yellow Foxtail, the pest or weed control at 140 g/ha is 0%, the pest or weed control at 280 g/ha was found to be 20%, the pest or weed control at 560 g/ha was 80% and the pest or weed control at 1120 g/ha came to 100%. For the same compound, in the test on Wild Oats, the pest or weed control at 140 g/ha came out at 0%, the pest or weed control at 280 g/ha is 0%, the pest or weed control at 560 g/ha stood at 40% and the pest or weed control at 1120 g/ha was determined as 30%. Moreover, in the test on Wheat, the plant injury at 70 g/ha was determined as 0%, the plant injury at 140 g/ha is 0%, the plant injury at 280 g/ha worked out at 0% and the plant injury at 560 g/ha came to 0%. For the same compound, the plant injury at 1120 g/ha in the test with Wheat worked out at 0%.

Consider `CCOCCOC(=O)C(C)Oc1ccc(Oc2ccc(Br)cc2F)cc1` (stereo not drawn) [O(CH2)2 OC2 H5], for which, in the test on Barnyard Grass, the pest or weed control at 70 g/ha is 0%, the pest or weed control at 140 g/ha was 90%, the pest or weed control at 280 g/ha came to 95% and the pest or weed control at 560 g/ha was 100%. For the same compound, the pest or weed control at 1120 g/ha in the test on Barnyard Grass was found to be 100%. Besides, in the test with Johnson Grass, the pest or weed control at 70 g/ha was 0%, the pest or weed control at 140 g/ha was found to be 0%, the pest or weed control at 280 g/ha stood at 0% and the pest or weed control at 560 g/ha is 60%. Further, the pest or weed control at 1120 g/ha in the test on Johnson Grass was found to be 60%. In the test with Yellow Foxtail, the pest or weed control at 70 g/ha was determined as 0%, the pest or weed control at 140 g/ha was found to be 0%, the pest or weed control at 280 g/ha came to 80% and the pest or weed control at 560 g/ha was found to be 100%. Moreover, the pest or weed control at 1120 g/ha in the test on Yellow Foxtail amounted to 100%. Moreover, in the test with Wild Oats, the pest or weed control at 70 g/ha was found to be 0%, the pest or weed control at 140 g/ha was determined as 30%, the pest or weed control at 280 g/ha stood at 30% and the pest or weed control at 560 g/ha was determined as 100%. Also, the pest or weed control at 1120 g/ha in the test with Wild Oats was found to be 100%. In addition, in the test with Wheat, the plant injury at 70 g/ha worked out at 0%, the plant injury at 140 g/ha turned out to be 0%, the plant injury at 280 g/ha amounted to 0% and the plant injury at 560 g/ha was 0%. Besides, the plant injury at 1120 g/ha in the test on Wheat is 20%.

In the case of `CC(Oc1ccc(Oc2ccc(Br)cc2F)cc1)C(N)=O` (stereo not drawn) [NH2, 2-(4-(4-Bromo-2-fluorophenoxy)phenoxy)propionamide], in the test with Barnyard Grass, the pest or weed control at 70 g/ha turned out to be 20%, the pest or weed control at 140 g/ha is 100%, the pest or weed control at 280 g/ha was 100% and the pest or weed control at 560 g/ha was 100%. Besides, the pest or weed control at 1120 g/ha in the test on Barnyard Grass was 100%. Further, in the test with Johnson Grass, the pest or weed control at 70 g/ha was determined as 0%, the pest or weed control at 140 g/ha was 0%, the pest or weed control at 280 g/ha is 30% and the pest or weed control at 560 g/ha came to 90%. Besides, in the test on Johnson Grass, the pest or weed control at 1120 g/ha turned out to be 100%. Besides, in the test on Yellow Foxtail, the pest or weed control at 70 g/ha amounted to 0%, the pest or weed control at 140 g/ha came to 90%, the pest or weed control at 280 g/ha is 95% and the pest or weed control at 560 g/ha was 100%. The pest or weed control at 1120 g/ha in the test on Yellow Foxtail came out at 100%. In addition, in the test on Wild Oats, the pest or weed control at 70 g/ha was 0%, the pest or weed control at 140 g/ha turned out to be 0%, the pest or weed control at 280 g/ha worked out at 50% and the pest or weed control at 560 g/ha is 50%. Further, in the test on Wild Oats, the pest or weed control at 1120 g/ha amounted to 95%. Besides, in the test with Wheat, the plant injury at 70 g/ha is 0%, the plant injury at 140 g/ha amounted to 0%, the plant injury at 280 g/ha is 30% and the plant injury at 560 g/ha is 90%. In addition, the plant injury at 1120 g/ha in the test on Wheat was 40%.
